Results as given in patent publication US20030061759A1, “Method for expelling harmful insects by volatilization of a chemical” (FUMAKILLA LIMITED, priority 2000, published 2003).
Where two headings read alike, the source gives them in different places.

Key:
[1] = system: female adult stegomyia mosquitoes (Aedes albopictus); experiment: Comparative debugging efficaciousness tests: bloodsucking prevention on rats, liquid type electric mosquito repellent utensil; format: in vivo; conditions: for efficacy of preventing mosquitoes from bloodsucking rats compared with transfluthrin: comparison in words; for Potency Ratio (Etoc 100), of IC50 Value / Potency Ratio (Etoc 100), of IC90 Value: relative to d,d-T80-prallethrin (Etoc) = 100; for IC50 Value (amount of volatilization at a 50% rate of bloodsucking prevention) / IC90 Value (amount of volatilization at a 90% rate of bloodsucking prevention): 13.2 m^2 room, 32° C., 30 min pre-fumigation, 2 hours after release, rats
Procedure: First, debugging efficaciousness tests were performed. For the criterion of judgment to compare degrees of efficaciousness, the effect of bloodsucking by mosquitoes of rats was adopted. Based on this, the following efficaciousness tests were carried out.
Comparative Debugging Efficaciousness Tests
Sample chemicals that were used were as follows: d,d-T80-prallethrin, transfluthrin, d1,d-T80-allethrin, d-T80-furamethrin, terallethrin and empenthrin; and pyrethroid technical products (sample chemicals) A, B, C, D, E, F, G and H.
Sample insects that were used were as follows: female adult stegomyia mosquitoes (Aedes albopictus) of Fumakilla (spelled phonetically) series 6th to 9th after emergence.
Sample chemical volatilizing form: A liquid type electric mosquito repellent utensil, a liquid agent (referred to below as “sample liquid”), obtained by diluting each of the sample chemicals with a solvent in a varying concentration, was allowed to volatilize.
Method used for tests: A test was conducted in two 8 straw mat (13.2 m^2) rooms, one as a treatment zone and the other as a non-treatment zone, both in a no-wind state and at a constant room temperature of 32° C.
In the treatment zone, three cages each with a rat confined therein were placed equidistantly spaced apart (about 20 cm) in the center of the test room. The mosquito repellent utensil placed on the floor surface of the center of the test room was preliminarily electrically energized for operation, and to thermally volatilize each of the sample liquids and fumigate the room therewith for a period of 30 minutes, and then about 100 (one hundred) of sample mosquitoes were released into the test room. After two hours following the release of the mosquitoes, all these sample mosquitoes were knocked-down by using a mosquito repellent mat, and the number of the mosquitoes which had bloodsucking was counted to find the proportion of bloodsucking.
In the non-treatment zone, also, after the 2 hours of bloodsucking, the proportion of bloodsucking was found.
A rate of bloodsucking prevention was derived from the proportions of bloodsucking in the treatment and non-treatment rooms as expressed by the following equation:
Rate of bloodsucking prevention =[(Total bloodsucking proportion in the non-treatment zone−Total bloodsucking proportion in the treatment zone)÷Total bloodsucking proportion in the non-treatment zone]×100
Also, on the basis of these amounts of volatilization and rates of bloodsucking prevention, an amount of volatilization at a 50% rate of bloodsucking prevention (IC50 value) and an amount of volatilization at a 90% rate of bloodsucking prevention (IC90 value) are found and shown in Table 1 below.

[2] = Comparative vapor pressure tests by gas chromatography; format: physicochemical
Procedure: 2. Comparative Vapor Pressure Tests
Next, by using gas chromatography, the various chemicals including sample chemicals A, B and C screened out by the foregoing comparative debugging efficaciousness tests were compared with d,d-T80-prallethrin (Etoc) as regards to their vapor pressures.
The gas chromatography test included as its temperature conditions an initial temperature of 60° C., and a temperature rise of 5° C. per minute up to a maximum temperature of 250° C., which was held for a period of 5 minutes, whereupon the process ended.
The filler used was made up of methyl silicon polymer, which is non-polar.
It should also be noted that as an internal standard substance use was made of sebacic acid-n-butyl and which was added to confirm that there was no deviation in retention time from one test to another.
Retention times for the various chemicals are listed in Table 2 in the order of shorter to longer.

[3] = system: female adult common house mosquitoes (Culex pipiens pallens); experiment: Example 1: spontaneous volatilization efficaciousness test in 33 m^3 room (knockdown, KT50); format: in vivo
Source text: Using sample chemicals A, B and C screened out by the preliminary tests, the efficaciousness of each of them when allowed to volatilize spontaneously was compared with that of transfluthrin when allowed to volatilize spontaneously.
Sample Preparations (Chemicals and Their Carriers According to the Present Invention):
(§1) A non-woven polypropylene fabric (made by Idemitsu Petroleum Chemicals Co., Ltd., product name RW2100, density 100 grams/m^2) of 50 cm×40 cm was coated with a hexane solution of 100 milliliter containing 1% (W/V) sample chemicals A, B, C and left to dry for 24 hours (effective amount of chemical: 1000 milligrams).
Comparative Preparation (Chemical and its Carrier):
as §1, with “of transfluthrin” for “sample chemicals A, B, C”
Testing Method: Efficaciousness Tests in an 8 Straw Mat room with a volume of 33 m^3
In the center of the test room with a volume of 33 m^3 (3.65 m×3.65 m×2.5 m high), each chemical carrier as prepared as above was placed as hung on a hook suspended in the center of the room to let the corresponding chemical volatilize spontaneously for a period of 3 hours. Thereafter, a triangular net casing (20 cm×20 cm×16.4 cm high) of 16 mesh nylon net containing 10 (ten) female adult common house mosquitoes (Culex pipiens pallens) was placed as hung in an area at each of the four corners (spaced from the wall surfaces at a distance of 90 cm) at a height of 150 cm from the room floor and was exposed to the chemical atmosphere.
A test was also conducted likewise for the comparative carrier.
After the tests ended, the samples chemicals were let to volatilize spontaneously in the room having a constant temperature of 30° C. The same test was repeated at given intervals and efficaciousness was then examined each time.

[4] = 60° C. initial, 5° C. per minute up to 250° C., non-polar methyl silicon polymer filler

C#CC(OC(=O)C1C(C=C(C)C)C1(C)C)/C(C)=C/CC (stereo not drawn) [Empenthrin]
efficacy of preventing mosquitoes from bloodsucking rats compared with transfluthrin [1]: lower effects of preventing mosquitoes from bloodsucking rats than transfluthrin | Potency Ratio (Etoc 100), of IC50 Value [1]: 0.7 | Potency Ratio (Etoc 100), of IC90 Value [1]: 1.2 | Retention Time (gas chromatography, as comparison of vapor pressure) [2, 4]: 20.1 min

CC(C)=CC1C(C(=O)OCc2cccc(Oc3ccccc3)c2)C1(C)C (stereo not drawn) [Phenothorin, reference compound]
Retention Time (gas chromatography, as comparison of vapor pressure) [2]: 33.7 min

CC=CC1C(C(=O)OCc2c(F)c(F)c(COC)c(F)c2F)C1(C)C (stereo not drawn) [Sample Chemical A, 2,3,5,6-tetrafluoro-4-methoxymethylbenzyl 3-(1-propenyl)-2,2-dimethylcyclopropanecarboxylate]
efficacy of preventing mosquitoes from bloodsucking rats compared with transfluthrin [1]: more efficacious than transfluthrin | Potency Ratio (Etoc 100), of IC50 Value [1]: 197.1 | Potency Ratio (Etoc 100), of IC90 Value [1]: 496.8 | Retention Time (gas chromatography, as comparison of vapor pressure) [2, 4]: 25.1 min | vapor pressure compared with transfluthrin and d,d-T80-prallethrin ([2]; from GC retention times): lower than transfluthrin, but higher than d,d-T80-prallethrin | potency and retention of potency compared with transfluthrin ([3]; comparison in words): higher in potency and also longer in retention time than transfluthrin | KT50 ([3]; elapsed time 0 hr): 6.53 min | KT50 ([3]; elapsed time 168 hr): 4.52 min | KT50 ([3]; elapsed time 336 hr): 5.38 min | KT50 ([3]; elapsed time 504 hr): 6.28 min | KT50 ([3]; elapsed time 672 hr): 7.25 min | KT50 ([3]; elapsed time 864 hr): 9.60 min | KT50 ([3]; elapsed time 1056 hr): 8.50 min | KT50 ([3]; elapsed time 1200 hr): 8.80 min | KT50 ([3]; elapsed time 1344 hr): 9.70 min | KT50 ([3]; elapsed time 1536 hr): 8.97 min | KT50 ([3]; elapsed time 1680 hr): 11.60 min | KT50 ([3]; elapsed time 1848 hr): 12.50 min | KT50 ([3]; elapsed time 2016 hr): 11.50 min | KT50 ([3]; elapsed time 2208 hr): 13.60 min | KT50 ([3]; elapsed time 2352 hr): 16.80 min | KT50 ([3]; elapsed time 2520 hr): 17.20 min | KT50 ([3]; elapsed time 2688 hr): 18.60 min | KT50 ([3]; elapsed time 2856 hr): 17.70 min | KT50 ([3]; elapsed time 3024 hr): 24.60 min | KT50 ([3]; elapsed time 3192 hr): 27.80 min | KT50 ([3]; elapsed time 3360 hr): 31.60 min

COc1c(F)c(F)c(COC(=O)C2C(C=C(Cl)Cl)C2(C)C)c(F)c1F (stereo not drawn) [Sample Chemical D, 2,3,5,6-tetrafluoro-4-methoxybenzyl 3-(2,2-dichlorovinyl)-2,2-dimethylcyclopropanecarboxylate]
Potency Ratio (Etoc 100), of IC50 Value [1]: 17.5 | Potency Ratio (Etoc 100), of IC90 Value [1]: 21.3

COCc1c(F)c(F)c(COC(=O)C2C(C=C(C)C)C2(C)C)c(F)c1F (stereo not drawn) [Sample Chemical E, 2,3,5,6-tetrafluoro-4-methoxymethylbenzyl 3-(2-methyl-1-propenyl)-2,2-dimethylcyclopropanecarboxylate]
Potency Ratio (Etoc 100), of IC50 Value [1]: 13.7 | Potency Ratio (Etoc 100), of IC90 Value [1]: 22.4

CC(C)=CC1C(C(=O)OCc2c(F)c(F)c(C)c(F)c2F)C1(C)C (stereo not drawn) [Sample Chemical F, 2,3,5,6-tetrafluoro-4-methylbenzyl 3-(2-methyl-1-propenyl)-2,2-dimethylcyclopropanecarboxylate]
Potency Ratio (Etoc 100), of IC50 Value [1]: 6.6 | Potency Ratio (Etoc 100), of IC90 Value [1]: 5.4

CC=CC1C(C(=O)OCc2c(F)c(F)c(C)c(F)c2F)C1(C)C (stereo not drawn) [Sample Chemical G, 2,3,5,6-tetrafluoro-4-methylbenzyl 3-(1-propenyl)-2,2-dimethylcyclopropanecarboxylate]
Potency Ratio (Etoc 100), of IC50 Value [1]: 2.8 | Potency Ratio (Etoc 100), of IC90 Value [1]: 4.3

C#CC(OC(=O)C1C(C=C(F)Cl)C1(C)C)C(C)=CCC (stereo not drawn) [Sample Chemical H, 1-ethynyl-2-methyl-2-pentenyl 3-(2-chloro-2-fluorovinyl)-2,2-dimethylcyclopropanecarboxylate]
Potency Ratio (Etoc 100), of IC50 Value [1]: 2.0 | Potency Ratio (Etoc 100), of IC90 Value [1]: 3.1

C=CCC1=C(C)C(OC(=O)C2C(C)(C)C2(C)C)CC1=O (stereo not drawn) [Terallethrin]
IC50 Value (amount of volatilization at a 50% rate of bloodsucking prevention) [1]: 0.3650 mg/h | IC90 Value (amount of volatilization at a 90% rate of bloodsucking prevention) [1]: 1.028 mg/h | efficacy of preventing mosquitoes from bloodsucking rats compared with transfluthrin [1]: lower effects of preventing mosquitoes from bloodsucking rats than transfluthrin | Potency Ratio (Etoc 100), of IC50 Value [1]: 2.2 | Potency Ratio (Etoc 100), of IC90 Value [1]: 3.8 | Retention Time (gas chromatography, as comparison of vapor pressure) [2]: 23.3 min

C=CCC1=C(C)C(OC(=O)C2C(C=C(C)C)C2(C)C)CC1=O (stereo not drawn) [d1,d-T80-allethrin]
efficacy of preventing mosquitoes from bloodsucking rats compared with transfluthrin [1]: lower effects of preventing mosquitoes from bloodsucking rats than transfluthrin | Potency Ratio (Etoc 100), of IC50 Value [1]: 12.9 | Potency Ratio (Etoc 100), of IC90 Value [1]: 9.5 | Retention Time (gas chromatography, as comparison of vapor pressure) [2]: 26.6 min

C#CCC1=C(C)C(OC(=O)C2C(C=C(C)C)C2(C)C)CC1=O (stereo not drawn) [d,d-T80-prallethrin]
IC50 Value (amount of volatilization at a 50% rate of bloodsucking prevention) [1]: 0.0081 mg/h | IC90 Value (amount of volatilization at a 90% rate of bloodsucking prevention) [1]: 0.039 mg/h | efficacy of preventing mosquitoes from bloodsucking rats compared with transfluthrin [1]: more efficacious than transfluthrin | Potency Ratio (Etoc 100), of IC50 Value [1]: 100.0 | Potency Ratio (Etoc 100), of IC90 Value [1]: 100.0 | Retention Time (gas chromatography, as comparison of vapor pressure) [2, 4]: 27.1 min

C#CCc1ccc(COC(=O)C2C(C=C(C)C)C2(C)C)o1 (stereo not drawn) [d-T80-furamethrin]
IC50 Value (amount of volatilization at a 50% rate of bloodsucking prevention) [1]: 0.1170 mg/h | IC90 Value (amount of volatilization at a 90% rate of bloodsucking prevention) [1]: 0.270 mg/h | efficacy of preventing mosquitoes from bloodsucking rats compared with transfluthrin [1]: lower effects of preventing mosquitoes from bloodsucking rats than transfluthrin | Potency Ratio (Etoc 100), of IC50 Value [1]: 6.9 | Potency Ratio (Etoc 100), of IC90 Value [1]: 14.4
